Results as given in patent US20110224221A1, “HEMATOPOIETIC PROTECTION AGAINST IONIZING RADIATION USING SELECTIVE CYCLIN-DEPENDENT KINASE 4/6 INHIBITORS” (priority 2008, published 2011).
Entries after “also recorded” stand apart in the source; their conditions may differ.

Experiments:
[1] = system: mice exposed to total body irradiation; assay: Survival after total body irradiation (TBI); type: in vivo
From the text: For TBI experiments, mice were irradiated using a ^137Cs source (AECL Gammacell 40 Irradiator, Atomic Energy of Canada Ltd, Mississauga, Ontario, Canada). Delivered doses were at or near the empirically determined LD90 of 7.5 Gy, consistent with prior studies. See Na Nakorn et al., J. Clin. Invest., 109, 1579-1585 (2002); Herodin et al., Blood, 101, 2609-2616 (2003); Uckun et al., Blood, 75, 638-645 (1990); and Wang et al., Proc. Natl. Acad. Sci., USA, 94, 14590-14595 (1997). Peripheral blood was collected using a tail vein nick for complete blood cells (CBCs) and analyzed with a HemaTrue analyzer (Heska Co., Loveland, Colo., United States of America).
Adult female C57Bl/6 mice were exposed to 6.5, 7.5, or 8.5 Gy with or without PD0332991 treatment and followed for 40 days post-TBI. The LD90 for IR was determined to be about 7.5 Gy. […] See FIGS. 14A for C3H and FIG. 2E for FVB/n. […] It appears that PQ resulting from transient CDK4/6 inhibition around the time of TBI enhances radioresistance in vivo.
More particularly, animals were given a CDK4/6 inhibitor at different times relative to TBI at the LD90. As radioprotection was observed when animals were treated with two doses pre- and one dose post-TBI (see FIGS. 13A-13B), further studies were undertaken to determine which of these doses was most important for radioprotection. Without being bound to any one theory, it appeared that most of the benefit of the treatment schedule was associated PD 0332991 treatment immediately prior to or contemporaneous with TBI. […] Although there are a few known compounds that protect from radiotoxicity when administered prior to IR (i.e. “radioprotectants”) (see Burdelya et al., Science, 320, 226-230 (2008); and Weiss and Landauer, Int J. Radiat. Biol., 85, 539-573 (2009)), previous to the presently disclosed subject matter, no known hematologic “radiomitigants” (i.e., compounds that reduce hematotoxicity when administered many hours after an exposure to TBI) are believed to have been reported.

[2] = Serum/plasma levels after oral gavage; type: in vivo, mice
Procedure: Mass Spectrometry: Mice were dosed as described and tail vein nick performed to acquire 30 μL periphal blood. Blood was centrifuged to acquire 10 μL plasma, which was mixed with 100 μL ice cold methanol, centrifuged, and mixed with 10 μL of an internal control. Plasma levels were quantified based on standard curves derived in triplicate from known concentrations of wild type C57Bl/6 female mouse plasma unexposed to the measured drug. Quantification was performed using HPLC separation with triple quadrupole mass spectrometry normalizing results to measurement of the internal standard.

[3] = system: TyrRAS+Ink4a/Arf−/− melanoma; assay: Tumor growth in Tyr-RAS+Ink4a/Arf−/− melanoma GEMM under daily treatment; type: in vivo, mice
From the text: Animals: All mice were housed in accord with the University of North Carolina at Chapel Hill (UNC-CH) Institutional Animal Care and Use Committee. Young adult (6-12 weeks of age), virgin female C57B1/6 mice were purchased from Jackson Labs (Bar Harbor, Me., United States of America). C3H mice were obtained from Harlan Sprague-Dawley Inc. (Indianapolis, Ind., United States of America). Experiments on tumor-bearing TyrRAS+Ink4a/Arf−/− mice (see Chin et al., Genes & development, 11, 2822-2834 (1997)) were performed in animals fully backcrossed (N>10) to the FVB/n background. Mice were treated as previously described (see Ramsey et al., Cancer Res., 67, 4732-4741 (2007)) with PD 0332991 obtained from Pfizer Inc., (New York, N.Y., United States of America) given by oral gavage at a dose of 150 mg/kg body weight. TyrRAS+Ink4a/Arf−/− mice were serially observed until tumor development. When tumors were about 0.2 cm^2 in size, daily PD 0332991 treatment was begun. The data shown in FIGS. 2B and 2D were normalized to tumor size at the time of therapy initiation. Tumor-bearing mice were euthanized at the indicated times for morbidity, tumor ulceration, or tumor size >1.5 cm in diameter.
See Walker et al., Genes Chromosomes Cancer, 22, 157-163 (1998); and Daniotti et al., Oncogene, 23, 5968-5977 (2004). […]

[4] = system: TyrRAS+Ink4a/Arf−/− melanoma; settings: mouse, in vivo; cited from earlier work
[5] = 8.5 Gy TBI, single dose four hours prior to IR

With `CC(=O)c1c(C)c2cnc(Nc3ccc(N4CCNCC4)cn3)nc2n(C2CCCC2)c1=O` [PD0332991, 6-acetyl-8-cyclopentyl-5-methyl-2-(5-piperazin-1-yl-pyridin-2-ylamino)-8H-pyrido-[2,3-d]-pyrimidin-7-one] the survival ([1]; 6.5 Gy) was “All mice survived”, the survival ([1]; 7.5 Gy, C57Bl/6, followed 40 days post-TBI) was “all treated mice survived” and the survival ([1]; 7.5 Gy, multiple doses around IR, within 40 days) was about 100%. The survival ([1]; 7.5 Gy, single dose 4 hours prior to IR) was “Enhanced survival; also recorded: survival similar to animals treated on the multi-dose”, the survival ([1]; 7.5 Gy, single dose 20 hours after TBI) was “significantly enhanced” and the survival ([1]; 7.5 Gy, single time 0 dose) was “survival similar to animals treated on the multi-dose”. The median survival [1, 5] was 19 days, the term survival [1, 5] was 13% and the term survival ([1]; 8.5 Gy TBI, single dose four hours prior to IR, listed as PD 0332991) was “about 30%”. For the same compound, the “persistence of therapeutic serum levels” value [2] was 10 to 20 h, the “time until therapeutic serum levels are achieved” value [2] was over 30 min and the “mice that developed new tumors while receiving treatment” value ([3]; 150 mg/kg daily, in the 8-16 days) was “two of five”. For the same compound, the “growth of established tumors” value ([3]; 150 mg/kg oral gavage daily, tumor-bearing Tyr-RAS+Ink4a/Arf−/− mice) was “no regression or decrease in tumor growth; also recorded: insensitive” and the “tolerability of dose and schedule” value [4] was “well tolerated without evident toxicity”.
